From paper PMC9597602, “Metal Complexes as Antifungals? From a Crowd-Sourced Compound Library to the First In Vivo Experiments” (JACS Au, 2022)
Values joined by “and” are separate entries in the source; they are usually repeats but may differ in a detail not shown here. Identical values can stand only once. Like-named read-outs stand apart in the source and are kept apart here. One block for each compound: values may come before it. Starred links: 1 amine or outer side, 2 acyl side, 3 side chain; linkers in the order of their positions; H or OH if unused. Positions of bridges follow the written chain, without caps; N, C: chain ends. Non-standard residues stand in square brackets, D forms with d. Residues, ends and D or L forms follow the SMILES beside them. *: point of attachment. hTyr(3S-OH,4S-OH,3'-OSO3H) = N[C@H](C(=O)O)[C@H](O)[C@@H](O)c1ccc(O)c(OS(=O)(=O)O)c1; Orn(4R-OH,5R-OH) = O=C([C@H](C[C@@H](O)[C@@H](O)N[*:3])N[*:1])[*:2]; Pro(3S-OH,4S-Me) = C[C@H]1CN[C@H](C(=O)O)[C@H]1O; X1 = CCCCCOc1ccc(-c2cc(-c3ccc(C(=O)*)cc3)no2)cc1; Gln(3R-OH) = NC(=O)C[C@@H](O)[C@H](N)C(=O)O; Hyp = O=C(O)[C@@H]1C[C@@H](O)CN1

How the values were obtained:
[1] = tested on: Cryptococcus deuterogattii ATCC 32609 VGII; assay: Antifungal MIC assay, extended panel; assay type: cell-based
[2] = tested on: Candida tropicalis ATCC 750; assay: Antifungal MIC assay, extended panel; assay type: cell-based
[3] = tested on: Candida auris CBS12373 KCTC 17810; assay: Antifungal MIC assay, extended panel; assay type: cell-based
How it was run: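 This broth microdilution MIC test followed the reference method for antifungal susceptibility testing of yeasts. Fluconazole served as the internal control on every plate. Inoculum came from 3-day YPD agar cultures, was diluted in YNB to 2.5 × 10^3 CFU/mL in 50 μL per well of 384-well plates, and was incubated 36 h at 35 °C. Compounds ran as two technical replicates across two to four independent assays.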

[4] = tested on: Candida auris CBS10913 JCM 15448; assay: Antifungal MIC assay, extended panel; assay type: cell-based
How it was run: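 This broth dilution MIC test for yeast used colonies cultured 3 days at 30 °C on YPD agar, suspended to 1 × 10^6 to 5 × 10^6 CFU/mL by OD530 and diluted with YNB. Cells were added at a final 2.5 × 10^3 CFU/mL (50 μL total) to 384-well plates with compound, incubated unshaken at 35 °C for 36 h, with fluconazole as an internal control on every plate.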

[5] = tested on: Cryptococcus neoformans H99 ATCC 208821 type strain; assay: Antifungal MIC assay; assay type: cell-based
How it was run: (§1)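 Read-out was the lowest compound concentration producing ≥80% growth inhibition, scored per CLSI M27. Yeast cells, precultured on YPD agar, were tested in YNB medium at a final 2.5 × 10^3 CFU/mL over 36 h at 35 °C.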

human red blood cells = assay type: cell-based
Procedure: Human whole blood (Australian Red Cross) was washed three times with 3 vol of 0.9% NaCl and resuspended in a concentration of 0.5 × 10^8 cells/mL, determined by a manual cell count in a Neubauer hemocytometer. […] After incubation, the plates were centrifuged at 1000g for 10 min to pellet cells and debris; 25 μL of the supernatant was then transferred to reading plates (384-well, polystyrene plated (PS), Corning CLS3680), with hemolysis determined by measuring the supernatant absorbance at […] (OD405) using cells without inhibitors as negative control and cells with 1% Triton X-100 (Sigma T8787) as positive control. […] Melittin (Sigma M2272) was used as internal control on each plate.

[6] = tested on: HEK-293 human embryonic kidney cells ATCC CRL-1573
Procedure: The cells were incubated together with the compounds for 20 h at 37 °C in 5% CO2. […] Tamoxifen (Sigma T5648) was used as internal control on each plate.

[7] = tested on: Cryptococcus deuterogattii CBS7750 VGII; Serotype B; assay: Antifungal MIC assay, extended panel; assay type: cell-based
[8] = tested on: Cryptococcus deuterogattii CBS7750 VGII; Serotype B; assay: Antifungal MIC assay, extended panel; assay type: cell-based; conditions: extended panel, second batch; ≥80 or ≥50% inhibition
Procedure: (§2) For the fungal assays, both fungi (yeast) strains were cultured for 3 days on Yeast Extract-Peptone Dextrose (YPD; Becton Dickinson 242720) agar at 30 °C. A yeast suspension of 1 × 10^6 to 5 × 10^6 CFU/mL (as determined by OD530) was prepared from five colonies from the agar plates, subsequently diluted with Yeast Nitrogen Base media (YNB; Becton Dickinson 233520), and added to each well of the compound containing plates (384-well plates, NBS; Corning CLS3640), giving a final cell density of 2.5 × 10^3 CFU/mL and a total volume of 50 μL. Plates were covered and incubated at 35 °C for 36 h without shaking. […] MIC values were recorded as the lowest concentration at which the growth was inhibited by ≥80%, equivalent to ″optically clear-to-slightly hazy″ or MIC score of 0–1 as per CLSI guidelines M27 Reference Method for Broth Dilution Antifungal Susceptibility Testing of Yeasts. […] Fluconazole (Sigma F8929) was used as internal control on each plate for all strains. All compounds were tested as two technical replicates in two to four independent biological assays, n = 4–8 final data.

[9] = tested on: Cryptococcus deuterogattii ATCC 32609 VGII; assay: Antifungal MIC assay, extended panel; assay type: cell-based; conditions: extended panel, second batch; ≥80 or ≥50% inhibition
Procedure: as §2

[10] = tested on: Candida tropicalis ATCC 750; assay: Antifungal MIC assay, extended panel; assay type: cell-based; conditions: extended panel, second batch; ≥80 or ≥50% inhibition
Procedure: as §2

[11] = tested on: Candida glabrata ATCC 90030 NCCLS 84; assay: Antifungal MIC assay, extended panel; assay type: cell-based; conditions: extended panel, second batch; ≥80 or ≥50% inhibition
Procedure: as §2

[12] = tested on: Candida albicans ATCC 90028 NCCLS11; assay: Antifungal MIC assay; assay type: cell-based
How it was run: as §1

[13] = tested on: Escherichia coli ATCC 25922 FDA control strain; assay: CO-ADD antibacterial MIC assay; assay type: cell-based; conditions: initial CO-ADD dose-response screening; ≥80% growth inhibition
Procedure: (§3) For the all the bacterial assays, each bacterial strain was cultured in cation-adjusted Mueller Hinton broth (CAMHB; Bacto Laboratories 212322) at 37 °C overnight. A sample of each culture was then diluted 40-fold in fresh CAMHB and incubated at 37 °C for 1.5–3 h. The resultant mid-log phase cultures were diluted with CAMHB (CFU/mL measured by OD600) and then added to each well of the compound-containing plates (384-well non-binding surface (NBS) plates; Corning CLS3640), giving a cell density of 5 × 10^5 CFU/mL and a total volume of 50 μL. Plates were covered and incubated at 37 °C for 18 h without shaking. Inhibition of bacterial growth was determined by measuring the absorbance at 600 nm (OD600) using media only as negative control and bacteria without inhibitors as positive control. MIC values were determined as the lowest concentration at which the growth was inhibited by ≥80% (equivalent to no visible growth by the eye). Colistin sulfate (Sigma C4461) and vancomycin HCl (Sigma 861987) were used as internal controls on each plate for Gram-negative and Gram-positive bacteria, respectively. All compounds were tested as two technical replicates in two independent biological assays, n = 4 final data.

[14] = tested on: Pseudomonas aeruginosa ATCC 27853 QC control strain; assay: CO-ADD antibacterial MIC assay; assay type: cell-based; conditions: initial CO-ADD dose-response screening; ≥80% growth inhibition
Procedure: as §3

[15] = tested on: Acinetobacter baumannii ATCC 19606 type strain; assay: CO-ADD antibacterial MIC assay; assay type: cell-based; conditions: initial CO-ADD dose-response screening; ≥80% growth inhibition
Procedure: as §3

[16] = tested on: methicillin-resistant Staphylococcus aureus ATCC 43300; assay: CO-ADD antibacterial MIC assay; assay type: cell-based; conditions: initial CO-ADD dose-response screening; ≥80% growth inhibition
Procedure: as §3

[17] = tested on: Candida glabrata ATCC 90030 NCCLS 84; assay: Antifungal MIC assay, extended panel; assay type: cell-based
[18] = extended panel, 50% inhibition, MIC score 2
[19] = extended panel, second batch, ≥80 or ≥50% inhibition
[20] = initial CO-ADD dose-response screening, ≥80% growth inhibition

MIC50 Cryptococcus deuterogattii ATCC 32609 [1, 18]: 0.049 to 0.098 µM | MIC50 Candida tropicalis ATCC 750 [2, 18]: 0.098 µM | MIC50 Candida auris CBS12373 [3, 18]: 0.024 to 0.049 µM | MIC Candida auris CBS10913 [4, 19]: 0.024 to 0.098 µM | MIC50 Candida auris CBS10913 [4, 18]: 0.098 µM | MIC ([5]; extended panel, second batch, ≥80 or ≥50% inhibition, read-out: MIC* Cryptococcus neoformans ATCC 208821): 0.024 µM | MIC50 Cryptococcus neoformans ATCC 208821 [5, 18]: 0.024 µM | MIC Cn [5, 20]: 1 µg/mL | RBC HC10 (human red blood cells; ranges obtained upon retesting, new batch): 3 to 41 µM | MIC50 Cryptococcus deuterogattii CBS7750 [7, 18]: 0.024 µM | MIC Cryptococcus deuterogattii CBS7750 [8]: 0.024 to 0.049 µM | MIC Cryptococcus deuterogattii ATCC 32609 [9]: 0.049 to 0.2 µM | MIC [10]: 0.098 µM | MIC [11]: 0.098 µM | MIC Candida albicans ATCC 90028 [12, 19]: 0.024 to 0.098 µM | MIC50 Candida albicans ATCC 90028 [12, 18]: 0.049 µM | MIC Ca [12, 20]: 2 µg/mL | MIC Ec [13]: >32 µg/mL | MIC Pa [14]: >32 µg/mL | MIC Ab [15]: >32 µg/mL | MIC MRSA (Sa) [16]: 0.5 µg/mL | MIC50 Candida glabrata ATCC 90030 [17, 18]: 0.098 µM
Compound: Cc1c(C)c(-c2ccc(-c3ccccc3)cc2)[c-](C)c1C.Cc1ccccc1NC1=[NH+][Ir]([Cl])[NH]C(NS(=O)(=O)c2cccc3c(N(C)C)cccc23)=N1 [Ir3]
RBC HC10 (human red blood cells; initial CO-ADD screening, 1 h, 10% hemolysis): >32 µg/mL | HEK CC50 ([6]; initial CO-ADD screening, 20 h): >32 µg/mL | CC50 ([6]; read-out: HEK293 CC50, ranges obtained upon retesting, new batch): 54 to 76 µM

Compound: CCCCCOc1ccc(-c2cc(-c3ccc(C(=O)N[C@H]4C[C@@H](O)[C@@H](O)NC(=O)[C@@H]5[C@@H](O)[C@@H](C)CN5C(=O)[C@H]([C@H](O)CC(N)=O)NC(=O)[C@H]([C@H](O)[C@@H](O)c5ccc(O)c(OS(=O)(=O)O)c5)NC(=O)[C@@H]5C[C@@H](O)CN5C(=O)[C@H]([C@@H](C)O)NC4=O)cc3)no2)cc1 [Micafungin, reference compound] (X1-[Orn(4R-OH,5R-OH)]T[Hyp][hTyr(3S-OH,4S-OH,3'-OSO3H)][Gln(3R-OH)][Pro(3S-OH,4S-Me)]; lactam 1-C)
MIC ([1]; Cryptococcus deuterogattii, ATCC32609, read-out: MIC* Cryptococcus deuterogattii ATCC 32609): 0.016 µg/mL to 0.125 µg/mL and 0.017 µM to 0.139 µM | MIC ([2]; Candida tropicalis, ATCC750, read-out: MIC* Candida tropicalis ATCC 750): 0.008 µg/mL to 0.063 µg/mL and 0.009 µM to 0.07 µM | MIC ([3]; Candidozyma auris, read-out: MIC* Candida auris CBS12373): 2 µg/mL and 2.23 µM | MIC ([4]; Candidozyma auris, read-out: MIC* Candida auris CBS10913): ≤ 0.001 µg/mL and ≤ 0.0014 µM | MIC ([5]; Cryptococcus neoformans, ATCC208821, read-out: MIC* Cryptococcus neoformans ATCC 208821): 0.015 µg/mL to 0.063 µg/mL and 0.017 µM to 0.07 µM | MIC ([7]; Cryptococcus deuterogattii, CBS7750, read-out: MIC* Cryptococcus deuterogattii CBS7750): 0.06 µg/mL to 0.125 µg/mL and 0.07 µM to 0.139 µM | MIC ([12]; Candida albicans, ATCC90028, read-out: MIC* Candida albicans ATCC 90028): ≤ 0.0005 µg/mL and ≤ 0.0007 µM | MIC ([17]; Nakaseomyces glabratus, ATCC90030, read-out: MIC* Candida glabrata ATCC 90030): 4 µg/mL to 32 µg/mL and 4.45 µM to 35.7 µM
